Source: the supplement of paper PMC10307832

Experiments:
Assay in all cases: relative viability (nuclei count vs DMSO), 5 days (fraction); higher = more cells survive
Afatinib = compound: CN(C)C/C=C/C(=O)Nc1cc2c(Nc3ccc(F)c(Cl)c3)ncnc2cc1O[C@H]1CCOC1 [Afatinib]
Procedure, shortened: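 Lung cancer cell lines in 1536-well plates were exposed by pinning to five library-drug doses (not always all listed) √10 apart, following an overnight hold at 37 °C. MetaXpress counted Hoechst-stained nuclei from 4× images taken after 5 days without medium change. Viability is the median ratio of treated-well to vehicle-well nuclei across plates. Plates required control CV below 25% and at least one doubling.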

Afatinib + Tozasertib = compound: CN(C)C/C=C/C(=O)Nc1cc2c(Nc3ccc(F)c(Cl)c3)ncnc2cc1O[C@H]1CCOC1 [Afatinib] + Cc1cc(Nc2cc(N3CCN(C)CC3)nc(Sc3ccc(NC(=O)C4CC4)cc3)n2)n[nH]1 [Tozasertib] (partner 0.1 µM)
Procedure, shortened: (§1)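 Lung cancer cell lines, seeded in 1536-well plates, were treated the following day by pin tool with a single drug or with five library-drug doses (not always all listed) in √10 steps on top of a fixed anchor-drug dose. Cells were fixed and nuclei stained in one step after 5 days, and nuclei were counted. Relative viability is the nuclei count for treated wells divided by that for vehicle wells, reported as medians of duplicate plates.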

Afatinib + Pemetrexed = compound: CN(C)C/C=C/C(=O)Nc1cc2c(Nc3ccc(F)c(Cl)c3)ncnc2cc1O[C@H]1CCOC1 [Afatinib] + Nc1nc2[nH]cc(CCc3ccc(C(=O)N[C@@H](CCC(=O)O)C(=O)O)cc3)c2c(=O)[nH]1 [Pemetrexed] (partner 0.2 µM)
Procedure, shortened: as §1

Afatinib + Palbociclib = compound: CN(C)C/C=C/C(=O)Nc1cc2c(Nc3ccc(F)c(Cl)c3)ncnc2cc1O[C@H]1CCOC1 [Afatinib] + CC(=O)c1c(C)c2cnc(Nc3ccc(N4CCNCC4)cn3)nc2n(C2CCCC2)c1=O [Palbociclib] (partner 0.5 µM)
Procedure, shortened: as §1

Afatinib + Dasatinib = compound: CN(C)C/C=C/C(=O)Nc1cc2c(Nc3ccc(F)c(Cl)c3)ncnc2cc1O[C@H]1CCOC1 [Afatinib] + Cc1nc(Nc2ncc(C(=O)Nc3c(C)cccc3Cl)s2)cc(N2CCN(CCO)CC2)n1 [Dasatinib] (partner 0.075 µM)
Procedure, shortened: as §1

Afatinib + Olaparib = compound: CN(C)C/C=C/C(=O)Nc1cc2c(Nc3ccc(F)c(Cl)c3)ncnc2cc1O[C@H]1CCOC1 [Afatinib] + O=C(c1cc(Cc2n[nH]c(=O)c3ccccc23)ccc1F)N1CCN(C(=O)C2CC2)CC1 [Olaparib] (partner 8 µM)
Procedure, shortened: as §1

Afatinib + Luminespib = compound: CN(C)C/C=C/C(=O)Nc1cc2c(Nc3ccc(F)c(Cl)c3)ncnc2cc1O[C@H]1CCOC1 [Afatinib] + CCNC(=O)c1noc(-c2cc(C(C)C)c(O)cc2O)c1-c1ccc(CN2CCOCC2)cc1 [Luminespib] (partner 0.01 µM)
Procedure, shortened: as §1

Afatinib + Decitabine = compound: CN(C)C/C=C/C(=O)Nc1cc2c(Nc3ccc(F)c(Cl)c3)ncnc2cc1O[C@H]1CCOC1 [Afatinib] + Nc1ncn([C@H]2C[C@H](O)[C@@H](CO)O2)c(=O)n1 [Decitabine] (partner 2 µM)
Procedure, shortened: as §1

Afatinib + OSI-027 = compound: CN(C)C/C=C/C(=O)Nc1cc2c(Nc3ccc(F)c(Cl)c3)ncnc2cc1O[C@H]1CCOC1 [Afatinib] + COc1cccc2cc(-c3nc([C@H]4CC[C@H](C(=O)O)CC4)n4ncnc(N)c34)[nH]c12 [OSI-027] (partner 0.5 µM)
Procedure, shortened: as §1

Afatinib + Phenformin = compound: CN(C)C/C=C/C(=O)Nc1cc2c(Nc3ccc(F)c(Cl)c3)ncnc2cc1O[C@H]1CCOC1 [Afatinib] + N=C(N)NC(=N)NCCc1ccccc1 [Phenformin] (partner 250 µM)
Procedure, shortened: as §1

Afatinib + AZD7762 = compound: CN(C)C/C=C/C(=O)Nc1cc2c(Nc3ccc(F)c(Cl)c3)ncnc2cc1O[C@H]1CCOC1 [Afatinib] + NC(=O)Nc1cc(-c2cccc(F)c2)sc1C(=O)N[C@H]1CCCNC1 [AZD7762] (partner 0.2 µM)
Procedure, shortened: as §1

Afatinib + Vorinostat = compound: CN(C)C/C=C/C(=O)Nc1cc2c(Nc3ccc(F)c(Cl)c3)ncnc2cc1O[C@H]1CCOC1 [Afatinib] + O=C(CCCCCCC(=O)Nc1ccccc1)NO [Vorinostat] (partner 1 µM)
Procedure, shortened: as §1

Afatinib + Trametinib = compound: CN(C)C/C=C/C(=O)Nc1cc2c(Nc3ccc(F)c(Cl)c3)ncnc2cc1O[C@H]1CCOC1 [Afatinib] + CC(=O)Nc1cccc(-n2c(=O)n(C3CC3)c(=O)c3c(Nc4ccc(I)cc4F)n(C)c(=O)c(C)c32)c1 [Trametinib] (partner 0.02 µM)
Procedure, shortened: as §1

Afatinib + Foretinib = compound: CN(C)C/C=C/C(=O)Nc1cc2c(Nc3ccc(F)c(Cl)c3)ncnc2cc1O[C@H]1CCOC1 [Afatinib] + COc1cc2c(Oc3ccc(NC(=O)C4(C(=O)Nc5ccc(F)cc5)CC4)cc3F)ccnc2cc1OCCCN1CCOCC1 [Foretinib] (partner 0.25 µM)
Procedure, shortened: as §1

NCI-H522
relative viability (Afatinib; 0.005 µM): 0.929 | relative viability (Afatinib; 0.01581 µM): 0.785 | relative viability (Afatinib; 0.05 µM): 0.703 | relative viability (Afatinib; 0.1581 µM): 0.786 | relative viability (Afatinib; 0.5 µM): 0.735 | relative viability (Afatinib + Tozasertib; first compound 0.005 µM): 0.512 | relative viability (Afatinib + Tozasertib; first compound 0.01581 µM): 0.535 | relative viability (Afatinib + Tozasertib; first compound 0.05 µM): 0.521 | relative viability (Afatinib + Tozasertib; first compound 0.1581 µM): 0.449 | relative viability (Afatinib + Tozasertib; first compound 0.5 µM): 0.401 | relative viability (Afatinib + Pemetrexed; first compound 0.005 µM): 0.928 | relative viability (Afatinib + Pemetrexed; first compound 0.01581 µM): 0.889 | relative viability (Afatinib + Pemetrexed; first compound 0.05 µM): 0.916 | relative viability (Afatinib + Pemetrexed; first compound 0.1581 µM): 0.666 | relative viability (Afatinib + Pemetrexed; first compound 0.5 µM): 0.807 | relative viability (Afatinib + Palbociclib; first compound 0.005 µM): 1 | relative viability (Afatinib + Palbociclib; first compound 0.01581 µM): 1.05 | relative viability (Afatinib + Palbociclib; first compound 0.05 µM): 1.15 | relative viability (Afatinib + Palbociclib; first compound 0.1581 µM): 0.881 | relative viability (Afatinib + Palbociclib; first compound 0.5 µM): 0.675 | relative viability (Afatinib + Dasatinib; first compound 0.005 µM): 0.877 | relative viability (Afatinib + Dasatinib; first compound 0.01581 µM): 0.992 | relative viability (Afatinib + Dasatinib; first compound 0.05 µM): 0.712 | relative viability (Afatinib + Dasatinib; first compound 0.1581 µM): 0.733 | relative viability (Afatinib + Dasatinib; first compound 0.5 µM): 0.692 | relative viability (Afatinib + Olaparib; first compound 0.005 µM): 0.573 | relative viability (Afatinib + Olaparib; first compound 0.01581 µM): 0.726 | relative viability (Afatinib + Olaparib; first compound 0.05 µM): 0.639 | relative viability (Afatinib + Olaparib; first compound 0.1581 µM): 0.532 | relative viability (Afatinib + Olaparib; first compound 0.5 µM): 0.464 | relative viability (Afatinib + Luminespib; first compound 0.005 µM): 1.25 | relative viability (Afatinib + Luminespib; first compound 0.01581 µM): 1.19 | relative viability (Afatinib + Luminespib; first compound 0.05 µM): 0.978 | relative viability (Afatinib + Luminespib; first compound 0.1581 µM): 0.923 | relative viability (Afatinib + Luminespib; first compound 0.5 µM): 1 | relative viability (Afatinib + Decitabine; first compound 0.005 µM): 0.644 | relative viability (Afatinib + Decitabine; first compound 0.01581 µM): 0.672 | relative viability (Afatinib + Decitabine; first compound 0.05 µM): 0.736 | relative viability (Afatinib + Decitabine; first compound 0.1581 µM): 0.655 | relative viability (Afatinib + Decitabine; first compound 0.5 µM): 0.581 | relative viability (Afatinib + OSI-027; first compound 0.005 µM): 0.723 | relative viability (Afatinib + OSI-027; first compound 0.01581 µM): 0.594 | relative viability (Afatinib + OSI-027; first compound 0.05 µM): 0.631 | relative viability (Afatinib + OSI-027; first compound 0.1581 µM): 0.544 | relative viability (Afatinib + OSI-027; first compound 0.5 µM): 0.557 | relative viability (Afatinib + Phenformin; first compound 0.005 µM): 0.729 | relative viability (Afatinib + Phenformin; first compound 0.01581 µM): 0.584 | relative viability (Afatinib + Phenformin; first compound 0.05 µM): 0.643 | relative viability (Afatinib + Phenformin; first compound 0.1581 µM): 0.532 | relative viability (Afatinib + Phenformin; first compound 0.5 µM): 0.698 | relative viability (Afatinib + AZD7762; first compound 0.005 µM): 0.76 | relative viability (Afatinib + AZD7762; first compound 0.01581 µM): 0.812 | relative viability (Afatinib + AZD7762; first compound 0.05 µM): 0.817 | relative viability (Afatinib + AZD7762; first compound 0.1581 µM): 0.767 | relative viability (Afatinib + AZD7762; first compound 0.5 µM): 0.748 | relative viability (Afatinib + Vorinostat; first compound 0.005 µM): 0.865 | relative viability (Afatinib + Vorinostat; first compound 0.01581 µM): 0.928 | relative viability (Afatinib + Vorinostat; first compound 0.05 µM): 0.829 | relative viability (Afatinib + Vorinostat; first compound 0.1581 µM): 0.7 | relative viability (Afatinib + Vorinostat; first compound 0.5 µM): 0.721 | relative viability (Afatinib + Trametinib; first compound 0.005 µM): 0.58 | relative viability (Afatinib + Trametinib; first compound 0.01581 µM): 0.781 | relative viability (Afatinib + Trametinib; first compound 0.05 µM): 0.79 | relative viability (Afatinib + Trametinib; first compound 0.1581 µM): 0.667 | relative viability (Afatinib + Trametinib; first compound 0.5 µM): 0.545

NCI-H1623
relative viability (Afatinib; 0.005 µM): 0.822 | relative viability (Afatinib; 0.01581 µM): 0.813 | relative viability (Afatinib; 0.05 µM): 0.42 | relative viability (Afatinib; 0.1581 µM): 0.221 | relative viability (Afatinib; 0.5 µM): 0.267 | relative viability (Afatinib + Tozasertib; first compound 0.005 µM): 0.397 | relative viability (Afatinib + Tozasertib; first compound 0.01581 µM): 0.346 | relative viability (Afatinib + Tozasertib; first compound 0.05 µM): 0.285 | relative viability (Afatinib + Tozasertib; first compound 0.1581 µM): 0.121 | relative viability (Afatinib + Tozasertib; first compound 0.5 µM): 0.148 | relative viability (Afatinib + Foretinib; first compound 0.005 µM): 0.694 | relative viability (Afatinib + Foretinib; first compound 0.01581 µM): 0.597 | relative viability (Afatinib + Foretinib; first compound 0.05 µM): 0.414 | relative viability (Afatinib + Foretinib; first compound 0.1581 µM): 0.213 | relative viability (Afatinib + Dasatinib; first compound 0.005 µM): 0.446 | relative viability (Afatinib + Dasatinib; first compound 0.01581 µM): 0.472 | relative viability (Afatinib + Dasatinib; first compound 0.05 µM): 0.375 | relative viability (Afatinib + Dasatinib; first compound 0.1581 µM): 0.198 | relative viability (Afatinib + Dasatinib; first compound 0.5 µM): 0.226 | relative viability (Afatinib + Luminespib; first compound 0.005 µM): 0.489 | relative viability (Afatinib + Luminespib; first compound 0.01581 µM): 0.454 | relative viability (Afatinib + Luminespib; first compound 0.05 µM): 0.325 | relative viability (Afatinib + Luminespib; first compound 0.1581 µM): 0.214 | relative viability (Afatinib + Luminespib; first compound 0.5 µM): 0.281 | relative viability (Afatinib + OSI-027; first compound 0.005 µM): 0.394 | relative viability (Afatinib + OSI-027; first compound 0.01581 µM): 0.324 | relative viability (Afatinib + OSI-027; first compound 0.05 µM): 0.255 | relative viability (Afatinib + OSI-027; first compound 0.1581 µM): 0.189 | relative viability (Afatinib + OSI-027; first compound 0.5 µM): 0.243 | relative viability (Afatinib + Phenformin; first compound 0.005 µM): 0.548 | relative viability (Afatinib + Phenformin; first compound 0.01581 µM): 0.499 | relative viability (Afatinib + Phenformin; first compound 0.05 µM): 0.36 | relative viability (Afatinib + Phenformin; first compound 0.1581 µM): 0.16 | relative viability (Afatinib + Phenformin; first compound 0.5 µM): 0.431
